According to patent publication US10472341B2, “Bicyclic tetrahydrothiazepine derivatives useful for the treatment of neoplastic and/or infectious diseases” (APEIRON BIOLOGICS AG, priority 2015, dated 2019):

How the values were obtained:
[1] = test system: aCD3/aCD28-stimulated human CD4+-T-cells; experiment: IL-2 production and activation markers in aCD3/aCD28 stimulated isolated human CD4+-T-cells; type: cell-based; conditions: IL-2 production at 3 μM compound
Procedure, shortened: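 CD4+ T cells isolated from buffy-coat PBMCs by microbeads were plated in Xvivo medium (1.5*10^5 cells/well) and stimulated with anti-CD3/28 mAbs plus compound. IL-2 measured by ELISA in supernatants at 24 h or 48 h; CD25 and proliferation by flow cytometry, CD69 at 24 h. Activity classes based on IL-2 at 3 μM compound.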

[2] = test system: non-stimulated PBMCs; experiment: Non-stimulated PBMCs: cytokine secretion and signs of T-cell activation; type: cell-based, human
From the text: This is an important finding for compounds that shall selectively act on T cells which have been activated by presence of antigen from pathogens or tumors, but shall not lead to an unwanted general activation of all T cells of a patient.

[3] = test system: CD8 T cells & M21 tumor cells; experiment: CD8 T cells from M21-prestimulated PBMCs restimulated with M21 tumor cells, with or without PD-1 blockade; type: cell-based, human
Procedure: For experiments investigating effects of PD-1 blockade, PBMCs were preincubated with 1 h UV-irradiated M21 tumor cells (50000 tumor cells per 1 Mill. PBMCs) for 14 days. […] Compounds and anti-PD-1 antibody (Nivolumab) or control antibody without direct effects on CD8 T cells (Ipilimumab) were added where indicated.
[…] Example 107, no antibody (no Ig), anti-PD-1 antibody (Nivolumab) or control antibody without direct effects on CD8 T cells (Ipilimumab) were included where indicated.

[4] = Ex. 107 0.03 μM, with Ipilimumab
[5] = Ex. 107 0.03 μM, with Nivolumab
[6] = Ex. 107 0.1 μM, with Ipilimumab
[7] = Ex. 107 0.3 μM, with Ipilimumab

`Cl.N[C@H]1CS(=O)(=O)c2cc(F)c(C(=O)N[C@H]3CC3(F)F)cc2N(Cc2ccc(Cl)cc2)C1=O` (single isomer, unassigned) [Example 107] was tested, and the “Activity Class CD4+” value [1] was “A (IL-2 production at 3 μM compound concentration >10 ng/mL)”, the “cytokine secretion or other signs of T-cell activation” value [2] was “did not enhance cytokine secretion or other signs of T-cell activation” and the “enhancement of cytokine production” value ([3]; CD8 T cells in the absence of tumor cells) was “such effect was not detected in the absence of tumor cells”. The “production of IL-2 and IFN-gamma” value ([3]; CD8 T cells restimulated with M21 tumor cells) was “enhanced production of both cytokines specifically upon tumor cell contact”, the “Average Granzyme B” value ([3]; Ex. 107 0.03 μM, no Ig) was 1.971 ng/mL and the “Average IFN-g” value ([3]; Ex. 107 0.03 μM, no Ig) was 0.059 ng/mL. The “Average IL-2” value ([3]; Ex. 107 0.03 μM, no Ig) was 0.048 ng/mL, the “Average Number of living M21 tumor cells” value ([3]; Ex. 107 0.03 μM, no Ig) was 16433 and the “Average Granzyme B” value [3, 4] was 1.639 ng/mL. For the same molecule, the “Average IFN-g” value [3, 4] was 0.057 ng/mL, the “Average IL-2” value [3, 4] was 0.041 ng/mL and the “Average Number of living M21 tumor cells” value [3, 4] was 21424. For the same molecule, the “Average Granzyme B” value [3, 5] was 5.522 ng/mL, the “Average IFN-g” value [3, 5] was 0.772 ng/mL and the “Average IL-2” value [3, 5] was 0.105 ng/mL. The “Average Number of living M21 tumor cells” value [3, 5] was 5574, the “Average Granzyme B” value ([3]; Ex. 107 0.1 μM, no Ig) was 3.645 ng/mL and the “Average IFN-g” value ([3]; Ex. 107 0.1 μM, no Ig) was 0.313 ng/mL. The “Average IL-2” value ([3]; Ex. 107 0.1 μM, no Ig) was 0.106 ng/mL, the “Average Number of living M21 tumor cells” value ([3]; Ex. 107 0.1 μM, no Ig) was 9029 and the “Average Granzyme B” value [3, 6] was 3.905 ng/mL. The “Average IFN-g” value [3, 6] was 0.363 ng/mL, the “Average IL-2” value [3, 6] was 0.100 ng/mL and the “Average Number of living M21 tumor cells” value [3, 6] was 10688. For the same molecule, the “Average Granzyme B” value ([3]; Ex. 107 0.1 μM, with Nivolumab) was 9.246 ng/mL, the “Average IFN-g” value ([3]; Ex. 107 0.1 μM, with Nivolumab) was 2.282 ng/mL and the “Average IL-2” value ([3]; Ex. 107 0.1 μM, with Nivolumab) was 0.258 ng/mL. The “Average Number of living M21 tumor cells” value ([3]; Ex. 107 0.1 μM, with Nivolumab) was 3361, the “Average Granzyme B” value ([3]; Ex. 107 0.3 μM, no Ig) was 5.469 ng/mL and the “Average IFN-g” value ([3]; Ex. 107 0.3 μM, no Ig) was 1.114 ng/mL. The “Average IL-2” value ([3]; Ex. 107 0.3 μM, no Ig) was 0.259 ng/mL, the “Average Number of living M21 tumor cells” value ([3]; Ex. 107 0.3 μM, no Ig) was 3822 and the “Average Granzyme B” value [3, 7] was 6.001 ng/mL. For the same molecule, the “Average IFN-g” value [3, 7] was 1.098 ng/mL, the “Average IL-2” value [3, 7] was 0.222 ng/mL and the “Average Number of living M21 tumor cells” value [3, 7] was 4339. The “Average Granzyme B” value ([3]; Ex. 107 0.3 μM, with Nivolumab) was 12.040 ng/mL, the “Average IFN-g” value ([3]; Ex. 107 0.3 μM, with Nivolumab) was 4.565 ng/mL and the “Average IL-2” value ([3]; Ex. 107 0.3 μM, with Nivolumab) was 0.590 ng/mL. The “Average Number of living M21 tumor cells” value ([3]; Ex. 107 0.3 μM, with Nivolumab) was 1648, the “Average Granzyme B” value ([3]; Ex. 107 1 μM, no Ig) was 7.246 ng/mL and the “Average IFN-g” value ([3]; Ex. 107 1 μM, no Ig) was 1.963 ng/mL. The “Average IL-2” value ([3]; Ex. 107 1 μM, no Ig) was 0.389 ng/mL, the “Average Number of living M21 tumor cells” value ([3]; Ex. 107 1 μM, no Ig) was 2642 and the “Average Granzyme B” value ([3]; Ex. 107 1 μM, with Ipilimumab) was 7.906 ng/mL. For the same molecule, the “Average IFN-g” value ([3]; Ex. 107 1 μM, with Ipilimumab) was 2.350 ng/mL, the “Average IL-2” value ([3]; Ex. 107 1 μM, with Ipilimumab) was 0.478 ng/mL and the “Average Number of living M21 tumor cells” value ([3]; Ex. 107 1 μM, with Ipilimumab) was 2104. The “Average Granzyme B” value ([3]; Ex. 107 1 μM, with Nivolumab) was 12.985 ng/mL, the “Average IFN-g” value ([3]; Ex. 107 1 μM, with Nivolumab) was 5.846 ng/mL and the “Average IL-2” value ([3]; Ex. 107 1 μM, with Nivolumab) was 0.954 ng/mL. For the same molecule, the “Average Number of living M21 tumor cells” value ([3]; Ex. 107 1 μM, with Nivolumab) was 1574, the “Average Granzyme B” value ([3]; Ex. 107 3 μM, no Ig) was 8.208 ng/mL and the “Average IFN-g” value ([3]; Ex. 107 3 μM, no Ig) was 2.469 ng/mL. The “Average IL-2” value ([3]; Ex. 107 3 μM, no Ig) was 0.523 ng/mL, the “Average Number of living M21 tumor cells” value ([3]; Ex. 107 3 μM, no Ig) was 2075 and the “Average Granzyme B” value ([3]; Ex. 107 3 μM, with Ipilimumab) was 9.283 ng/mL. The “Average IFN-g” value ([3]; Ex. 107 3 μM, with Ipilimumab) was 2.745 ng/mL, the “Average IL-2” value ([3]; Ex. 107 3 μM, with Ipilimumab) was 0.555 ng/mL and the “Average Number of living M21 tumor cells” value ([3]; Ex. 107 3 μM, with Ipilimumab) was 2083. The “Average Granzyme B” value ([3]; Ex. 107 3 μM, with Nivolumab) was 14.403 ng/mL, the “Average IFN-g” value ([3]; Ex. 107 3 μM, with Nivolumab) was 6.041 ng/mL and the “Average IL-2” value ([3]; Ex. 107 3 μM, with Nivolumab) was 1.285 ng/mL. For the same molecule, the “Average Number of living M21 tumor cells” value ([3]; Ex. 107 3 μM, with Nivolumab) was 1429, the “Average Granzyme B” value ([3]; Ex. 107 10 μM, no Ig) was 8.378 ng/mL and the “Average IFN-g” value ([3]; Ex. 107 10 μM, no Ig) was 3.113 ng/mL. For the same molecule, the “Average IL-2” value ([3]; Ex. 107 10 μM, no Ig) was 0.643 ng/mL, the “Average Number of living M21 tumor cells” value ([3]; Ex. 107 10 μM, no Ig) was 2000 and the “Average Granzyme B” value ([3]; Ex. 107 10 μM, with Ipilimumab) was 8.227 ng/mL. For the same molecule, the “Average IFN-g” value ([3]; Ex. 107 10 μM, with Ipilimumab) was 3.171 ng/mL, the “Average IL-2” value ([3]; Ex. 107 10 μM, with Ipilimumab) was 0.669 ng/mL and the “Average Number of living M21 tumor cells” value ([3]; Ex. 107 10 μM, with Ipilimumab) was 2033. The “Average Granzyme B” value ([3]; Ex. 107 10 μM, with Nivolumab) was 13.079 ng/mL, the “Average IFN-g” value ([3]; Ex. 107 10 μM, with Nivolumab) was 6.729 ng/mL and the “Average IL-2” value ([3]; Ex. 107 10 μM, with Nivolumab) was 1.596 ng/mL. For the same molecule, the “Average Number of living M21 tumor cells” value ([3]; Ex. 107 10 μM, with Nivolumab) was 1799, the “reduction of viable tumor cells” value ([3]; example 107 in the presence of Nivolumab) was “even more pronounced and reached with lower compound concentrations in the presence of Nivolumab” and the “enhancement of cytokine production” value ([3]; example 107 together with anti-PD-1 antibody (Nivolumab), CD8 T cells & M21) was “the enhancement of cytokine production was synergistic, i.e. more than additive”. The “granzyme release upon tumor-cell contact” value ([3]; example 107 with PD-1 blockade, CD8 T cells & M21) was “mediated an synergistic enhancement of the cytotoxic effector granzyme release upon tumor-cell contact” and the viable tumor cells ([3]; immune cell cocultures with M21 tumor cells) was “strong reduction of viable tumor cells”.
